Test results reported in patent publication US10179770B2, “Quinolines derivatives as novel anticancer agents” (GENOSCIENCE PHARMA, priority 2013, dated 2019).

Assays:
SK-MEL-28 cell line = assay: Combination of XIX-3 and Zelboraf, Bliss independence model; assay type: cell-based, human; details: XIX-3 associated with Zelboraf, 72 h
Description: The human melanoma cell line SK-MEL-28 was cultured in Minimum Essential Medium (MEM) supplemented with 10% Fetal Bovine Serum and 1% Penicillin-Streptomycin and maintained at 37° C. with 5% CO2.
SK-MEL-28 cells were plated at 2,500 cells per well onto 96-well plates in 90 μL of media per well and were allowed to grow overnight before the assay. XIX-3 and Zelboraf, a compound used for treatment for BRAF V600E mutation-positive metastatic melanoma, were added at different concentrations (combinations of five concentrations of XIX-3 and six concentrations of Zelboraf) to each well, and cell cultures were incubated for 72 h. […] Cell outgrowth was measured using a […] Aqueous One Solution Cell Proliferation Assay (Promega) and a TECAN Sunrise plate reader.
In each experiment, each point represents the average of triplicates in cell culture. The effects of drug-drug combinations are evaluated in the Bliss independence model (Prichard M. N. and Shipman C. Jr. Antivir. Res. 1990 (14) 181-205; Prichard, M. L. et al. Antimicrob Agents Chemother 1993 (37) 540-545). The theoretical additive effect is calculated from the dose-response curves of individual compounds by the equation: Z=X+Y(1−X) (7) Where: • Z represents the total inhibition produced by the combination of drugs X and Y. • X and Y represent the inhibition produced by drugs X and Y alone, respectively. […]

U87-MG = assay: CellTiter 96 Aqueous One Solution (MTS) cell proliferation assay; assay type: cell-based; details: Homo sapiens, U-87 MG; U87-MG (Glioma); Cell Titer 96 Aqueous One Solution; 72 h; mean of seven independent triplicate assays
Description: The human glioblastoma cell line U87-MG was cultured in Minimum Essential Medium (Life Invitrogen, 31095029) supplemented with 10% fetal bovine serum (GIBCO, 10500-056) and 1 % penicillin-streptomycin (GIBCO, 15140-122). Flasks and plated used for the cell culture were coated with 25 μg/mL poly-D-lysine (Sigma, P7280).
Cell outgrowth was measured using a tetrazolium compound (3-[4,5-dimethylthiazol-2-yl]-5-[3-carboxymethoxyphenyl]-2-[4-sulfophenyl]-2H tetrazolium, inner salt [MTS]) from the CellTiter 96® Aqueous One Solution Cell Proliferation Assay (Promega, Ref G3580) and according to the manufacturer procedure.
5000 cells were plated onto 96-well plates in 100 μL of media per well and were allowed to grow overnight before the assay. Compounds were added at different concentrations to each well, and cell cultures were incubated for 72 h. Control compound was the diluent used for compound resuspension (H2O). After addition of 20 μL of CellTiter 96® Aqueous One Solution, absorbance at 492 nm was measured using a microplate reader Sunrise (Tecan). EC50 values were determined as the dose of compound required to reduce […] values to 50% of the signal obtained for untreated cell cultures. […] The experimental data are analyzed using a computer program, Graphpad Prism (GraphPad Software, Inc. La Jolla, Calif.).

MOLM-14 cell line = assay: Growth inhibition assay of MOLM-14 (CellTiter-Glo, example 63); assay type: cell-based; details: Homo sapiens, 48 h, method of example 63
Description: MOLM-14 cell line was cultured in RPMI-1640 Medium supplemented with 10% v/v Fetal Bovine Serum (FBS), 1% Penicillin-Streptomycin and maintained at 37° C. with 5% CO2. 10,000 cells were plated onto 96-well plates immediately before the assay.
Each compound was added at different concentrations (combinations of six concentrations) to each well, and cell cultures were incubated for 48 h. Vehicle (H2O) was used as a control, and all compounds were tested in a constant percentage of vehicle. Cell outgrowth was measured using the CellTiter-Glo luminescent cell viability assay as described by the manufacturer (Promega, Ref G7571 Madison, Wis., USA) using a Centro (Berthold, France) plate reader.
In each experiment, each point represents the average of triplicates in cell culture.
The experimental data are analyzed using a computer program, Graphpad Prism (GraphPad Software, Inc. La Jolla, Calif.) and EC50 values were determined as the dose of compound required to reduce absorbance values to 50% of the signal obtained for vehicle treated cell cultures.

Colo205 = assay: EC50 determination in cancer cell lines; assay type: cell-based; details: Homo sapiens, COLO 205, 72 h, * n>2
Procedure, shortened: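 Cells treated with compound for 72 h, vehicle (DMSO or H2O) held constant; adherent lines plated overnight beforehand, MOLM-14 plated immediately before. Growth read by absorbance: MTS-type CellTiter 95 for adherent cells, sulforhodamine B for suspension cells. EC50 is dose reducing absorbance to 50% of vehicle, mean of ≥2 experiments.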

Row | Compound | Combination effect on cell viability (Bliss independence model) (SK-MEL-28 cell line) | EC50 (U87-MG) | EC50 (MOLM-14 cell line) | EC50 (Colo205)
1 | CCN(CC)C1CCN(C(C)c2cc(-c3ccccc3)nc3ccccc23)CC1.Cl.Cl (stereo not drawn) [XIX-3, 2-phenyl-4-{1-[4-(N,N-diethylamino)piperidin-1-yl]-eth-1-yl}quinoline dihydrochloride] | additive effect (between −20% to +20% indicates additive effect) | 26 µM | 22 µM | 
2 | CCN(CC)C1CCN(C(C)c2cc(-c3ccc4ccccc4c3)nc3ccccc23)CC1.Cl.Cl (stereo not drawn) [XXIV-3, 2-(2-naphtyl)-4-{1-[4-(N,N-diethylamino)-piperidin-1-yl]-eth-1-yl}quinoline dihydrochloride] |  |  |  | 5 µM
3 | Cc1ccc(-c2cc(N3CCC(NC(C)(C)C)CC3)c3ccccc3n2)cc1.Cl.Cl [XIII-8, 2-(4-methyl-phenyl)-4-(4-N-tert-butylamino-piperidin-1-yl)quinoline dihydrochloride] |  |  | 6 µM | 8 µM
